Results: publication PMC9709641 (Frontiers in Plant Science, 2022)

Assays:
[1] = target: α-glucosidase; experiment: PNPG hydrolysis assay, absorbance at […] nm; format: biochemical
[2] = target: α-glucosidase; experiment: PNPG hydrolysis assay, absorbance at […] nm; maximum inhibition […] at […]; format: biochemical

Work on `N#CC(O)c1ccc(O)cc1` (centres unmarked) [4-hydroxymandelonitrile] yielded an IC50 [1] of 15.8 µM.

eleutheroside E gave an IC50 [2] of 190 nM.
